Experimental data: patent publication US20250057963A1, “DISCOVERY OF PIPERLONGUMINE AS A NOVEL E3 LIGASE LIGAND” (University of Florida Research Foundation, Incorporated, priority 2021, published 2025)
Entries after “also recorded” stand apart in the source; their conditions may differ.

Columns and labels:
[1] = biological target: T1, CDK9: 955: KEAP1 ternary complex (Homo sapiens, UniProt P50750+Q14145); experiment: NanoBRET ternary complex formation assay in live 293T cells; assay type: cell-based; settings: HiBit-CDK9 and Halo-KEAP1 in 293T cells, 6 h
T1 construct: expressed in transfected cells; host or cells: 293T
Excerpt: CMV HiBit (Cat. No. CS1956B03) was purchased from Promega. Plasmid HaloTag-KEAP1 (a gift from Yimon Aye, plasmid #58240) was purchased from Addgene. HiBit-CDK9 were constructed through the Gibson assembly method. The primer pair (5′-[…]atggcaaagcagtacgactcggtggag-3′ and 5′-[…]gaagacgcgctcaaactccgtctggt-3′) and the template HA-CDK9 (a gift from Andrew Rice, plasmid #28102) was used to clone the CDK9 fragment. The primer pair (5′-accagacggagtttgagcgcgtcttc[…]-3′ and 5′-ctccaccgagtcgtactgcttcgccat[…]-3′) and pBit3.1—N(Cat. No. N2361, Promega) were used to clone the vector-containing fragment. The PCR fragments were assembled using NEBuilder® HiFi DNAAssembly Master Mix. DNA sequences in all these plasmids were authenticated by automatic sequencing. […] After treatment, NanoBRET Nano-Glo Substrate (Cat. No. N1662, Promega) was added into the medium, and the contents were mixed by shaking the plate for 30 s before measuring donor and acceptor signals on Biotek plate reader. Dual-filtered luminescence was collected with a 450/50 nm bandpass filter (donor, NanoBiT-CDK9 protein) and a 610-nm longpass filter (acceptor, HaloTag NanoBRET ligand) using an integration time of 0.5 s. mBRET ratios were calculated following the NanoBRET™ Nano-Glo® Detection System (Cat. No. N1662, Promega).

CDK9 = CDK9 (Homo sapiens, UniProt P50750); experiment: TMT-based global proteomics in MOLT4 cells; assay type: cell-based; design: endogenous in cells; host or cells: MOLT4
Excerpt: Sample Preparation and LC-MS/MS analysis. Total protein from cell pellets was reduced, alkylated, and purified by chloroform/methanol extraction prior to digestion with sequencing grade modified porcine trypsin (Cat. No. V5111, Promega). Tryptic peptides were labeled using tandem mass tag isobaric labeling reagents (Cat. No. A34808, ThermoFisher) following the manufacturer's instructions and combined into one 11-plex sample group. The labeled peptide multiplex was separated into 46 fractions on a 100×1.0 mm Acquity BEH C18 column (Waters) using an UltiMate 3000 UHPLC system (Thermo) with a 50 min gradient from 99:1 to 60:40 bufferA:B (Buffer A: 0.1% formic acid, 0.5% acetonitrile; Buffer B: 0.1% formic acid, 99.9% acetonitrile. Both buffers adjusted to pH 10 with ammonium hydroxide for offline separation) ratio under basic pH conditions, and then consolidated into 18 super-fractions. […]
Data processing and analysis. Proteins were identified and MS3 reporter ions quantified using MaxQuant (version 2.0.3.0; Max Planck Institute) against the Homo sapiens UniprotKB database (March 2021) with a parent ion tolerance of 3 ppm, a fragment ion tolerance of 0.5 Da, and a reporter ion tolerance of 0.003 Da. Scaffold Q+S (Proteome Software) was used to verify MS/MS based peptide and protein identifications (protein identifications were accepted if they could be established with less than 1.0% false discovery and contained at least 2 identified peptides; protein probabilities were assigned by the Protein Prophet algorithm (Nesvizhskii et al., 2003) and to perform reporter ion-based statistical analysis. Protein TMT MS3 reporter ion intensity values were assessed for quality using ProteiNorm for a systematic evaluation of normalization methods (Graw et al., 2020). Cyclic loess normalization (Ritchie et al., 2015) was utilized since it had the highest intragroup correlation and the lowest variance amongst the samples. […]

Sequence of CDK9 (P50750 whole entry): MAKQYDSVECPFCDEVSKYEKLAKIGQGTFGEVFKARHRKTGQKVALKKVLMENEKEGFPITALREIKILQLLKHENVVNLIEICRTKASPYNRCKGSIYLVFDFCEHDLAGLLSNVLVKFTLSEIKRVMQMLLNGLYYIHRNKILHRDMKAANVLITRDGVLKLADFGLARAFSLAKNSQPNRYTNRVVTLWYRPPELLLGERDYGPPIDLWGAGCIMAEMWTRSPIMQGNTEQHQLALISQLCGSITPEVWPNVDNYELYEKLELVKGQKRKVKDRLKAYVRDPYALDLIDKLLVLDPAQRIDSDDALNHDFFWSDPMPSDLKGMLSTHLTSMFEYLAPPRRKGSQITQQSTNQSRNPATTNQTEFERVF
T1 sequence (P50750 whole entry): as above
T1 sequence (Q14145 whole entry): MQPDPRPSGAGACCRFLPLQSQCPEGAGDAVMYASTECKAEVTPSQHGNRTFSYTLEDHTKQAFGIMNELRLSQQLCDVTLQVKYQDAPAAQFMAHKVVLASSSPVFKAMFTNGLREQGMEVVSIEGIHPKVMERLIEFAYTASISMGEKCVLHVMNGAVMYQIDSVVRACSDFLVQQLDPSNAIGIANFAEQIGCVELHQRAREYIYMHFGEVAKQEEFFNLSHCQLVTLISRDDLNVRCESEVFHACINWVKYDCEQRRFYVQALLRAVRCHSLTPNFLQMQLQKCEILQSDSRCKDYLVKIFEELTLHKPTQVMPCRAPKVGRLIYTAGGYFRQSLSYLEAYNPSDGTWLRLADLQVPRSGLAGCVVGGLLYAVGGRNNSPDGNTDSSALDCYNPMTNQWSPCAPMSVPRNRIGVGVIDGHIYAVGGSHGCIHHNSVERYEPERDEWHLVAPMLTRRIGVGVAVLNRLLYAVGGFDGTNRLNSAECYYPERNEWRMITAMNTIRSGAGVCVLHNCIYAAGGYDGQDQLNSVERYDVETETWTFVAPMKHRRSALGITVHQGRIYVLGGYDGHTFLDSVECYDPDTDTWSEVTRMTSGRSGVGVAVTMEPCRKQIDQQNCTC

## COc1cc(/C=C/C(=O)N2CCC=CC2=O)cc(OC)c1OCCN1CCN(C(=O)CN2CCC(C(=O)Nc3ncc(SCc4ncc(C(C)(C)C)o4)s3)CC2)CC1 [compound 955, (E)-N-(5-(((5-(tert-butyl)oxazol-2-yl)methyl)thio)thiazol-2-yl)-1-(2-(4-(2-(2,6-dimethoxy-4-(3-oxo-3-(6-oxo-3,6-dihydropyridin-1(2H)-yl)prop-1-en-1-yl)phenoxy)ethyl)piperazin-1-yl)-2-oxoethyl)piperidine-4-carboxamide]
[1]
  formation of the CDK9:KEAP1 ternary complex: formed a stable ternary complex with CDK9 and KEAP1 in a dose-dependent manner
CDK9; 0.1 μM 955, 1 hour
  proteins degraded or downregulated after short treatment (global proteome): only degraded CDK9 and CDK10 and downregulated one downstream protein FYTTD1
CDK9; 0.1 μM 955 for 1 h and 6 h, 1 μM SNS-032 for 6 h
  CDK9 protein level (global proteome): reduced the protein level of CDK9; also recorded: significant reduction of CDK9
